Results: paper PMC9694544, “Conteltinib (CT-707) in patients with advanced ALK-positive non-small cell lung cancer: a multicenter, open-label, first-in-human phase 1 study” (BMC Medicine, 2022)
“And” between values parts separate entries of the source, which are not always exact repeats. Equal values may be shown once.

Test system: ALK-positive NSCLC
Experiment: Phase 1 efficacy assessment (RECIST 1.1, investigator-assessed);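 also: tumours imaged by CT or MRI at baseline, after cycle 1, then every 8 weeks to cycle 29 and every 12 weeks until progression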
[1] = ALK TKI-naïve, 300 mg BID (n=6)
[2] = ALK TKI-naïve, 600 mg QD (n=12)
[3] = All patients, 300 mg BID (n=11)
[4] = Received crizotinib previously, 50 mg QD (n=1)
[5] = Received crizotinib previously, 200 mg QD (n=1)
[6] = Received crizotinib previously, 300 mg BID (n=5)
[7] = Received crizotinib previously, 300 mg QD (n=1)
[8] = Received crizotinib previously, 600 mg QD (n=6)
[9] = Received crizotinib previously, 800 mg QD (n=1)
[10] = waterfall plot, evaluable patients (n=60)

COc1cc(N2CCC(N3CCN(C)CC3)CC2)ccc1Nc1nc2c(c(Nc3ccccc3S(=O)(=O)NC(C)C)n1)CCN2 [Conteltinib]
CR rate (39 ALK TKI-naïve patients): 2.6% | PR rate (39 ALK TKI-naïve patients): 61.5% | number of patients with objective response (39 ALK TKI-naïve patients): 25 patients | patients with tumor regression (50/60 patients): 83.3% | DCR (95% CI) (ALK TKI-naïve, 50 mg QD (n=1)): 100.0% (2.5–100.0) | ORR (95% CI) (ALK TKI-naïve, 50 mg QD (n=1)): 100.0% (2.5–100.0) | DoR, Median (95% CI) (ALK TKI-naïve, 100 mg QD (n=6)): 11.1 (5.61–15.0) months | PFS, Median (95% CI) (ALK TKI-naïve, 100 mg QD (n=6)): 11.3 (2.75–15.9) months | DoR, Median (95% CI) (ALK TKI-naïve, 200 mg QD (n=2)): 5.51 (NE–NE) months | ORR (95% CI) (ALK TKI-naïve, 200 mg QD (n=2)): 50.0% (1.3–98.7) | PFS, Median (95% CI) (ALK TKI-naïve, 200 mg QD (n=2)): 5.89 (3.25–8.54) months | DoR, Median (95% CI) [1]: 10.6 (1.80–10.6) months | PFS, Median (95% CI) [1]: 17.8 (3.05–19.6) months | DCR (95% CI) (ALK TKI-naïve, 300 mg QD (n=2)): 100.0% (15.8–100.0) | DoR, Median (95% CI) (ALK TKI-naïve, 300 mg QD (n=2)): 17.4 (9.06–25.8) months | ORR (95% CI) (ALK TKI-naïve, 300 mg QD (n=2)): 100.0% (15.8–100.0) | PFS, Median (95% CI) (ALK TKI-naïve, 300 mg QD (n=2)): 19.5 (10.2–28.8) months | DoR, Median (95% CI) (ALK TKI-naïve, 450 mg QD (n=8)): NE (3.74–NE) | PFS, Median (95% CI) (ALK TKI-naïve, 450 mg QD (n=8)): NE (4.63–NE) | DoR, Median (95% CI) [2]: 16.5 (1.80–32.8) months | PFS, Median (95% CI) [2]: 19.3 (1.05–32.4) months | DCR (95% CI) (ALK TKI-naïve, 800 mg QD (n=2)): 100.0% (15.8–100.0) | DoR, Median (95% CI) (ALK TKI-naïve, 800 mg QD (n=2)): 28.0 (NE–NE) months | ORR (95% CI) (ALK TKI-naïve, 800 mg QD (n=2)): 50.0% (1.3–98.7) | PFS, Median (95% CI) (ALK TKI-naïve, 800 mg QD (n=2)): 19.8 (10.3–29.2) months | DoR, Median (95% CI) (ALK TKI-naïve, Total (n=39)): 15.0 (9.06–25.8) months | PFS, Median (95% CI) (ALK TKI-naïve, Total (n=39)): 15.9 (9.26–23.3) months | DCR (95% CI) (All patients, 50 mg QD (n=2)): 50.0% (1.3–98.7) | ORR (95% CI) (All patients, 50 mg QD (n=2)): 50.0% (1.3–98.7) | PFS, Median (95% CI) (All patients, 50 mg QD (n=2)): NE (1.21–NE) | DoR, Median (95% CI) (All patients, 100 mg QD (n=7)): 11.1 (5.61–15.0) months | PFS, Median (95% CI) (All patients, 100 mg QD (n=7)): 8.57 (0.95–15.9) months | DCR (95% CI) (All patients, 200 mg QD (n=3)): 33.3% (0.8–90.6) | DoR, Median (95% CI) (All patients, 200 mg QD (n=3)): 5.51 (NE–NE) months | ORR (95% CI) (All patients, 200 mg QD (n=3)): 33.3% (0.8–90.6) | PFS, Median (95% CI) (All patients, 200 mg QD (n=3)): 3.25 (1.34–8.54) months | DoR, Median (95% CI) [3]: 5.58 (1.80–10.6) months | PFS, Median (95% CI) [3]: 7.68 (3.05–17.8) months | DCR (95% CI) (All patients, 300 mg QD (n=3)): 100.0% (29.2–100.0) | DoR, Median (95% CI) (All patients, 300 mg QD (n=3)): 17.4 (9.06–25.8) months | ORR (95% CI) (All patients, 300 mg QD (n=3)): 66.7% (9.4–99.2) | PFS, Median (95% CI) (All patients, 300 mg QD (n=3)): 10.2 (4.92–28.8) months | DoR, Median (95% CI) (All patients, 450 mg QD (n=13)): NE (3.74–NE) | PFS, Median (95% CI) (All patients, 450 mg QD (n=13)): 26.9 (4.63–NE) months | DoR, Median (95% CI) (All patients, 600 mg QD (n=18)): 15.6 (1.80–22.2) months | PFS, Median (95% CI) (All patients, 600 mg QD (n=18)): 13.2 (4.69–23.0) months | DCR (95% CI) (All patients, 800 mg QD (n=3)): 100.0% (29.2–100.0) | DoR, Median (95% CI) (All patients, 800 mg QD (n=3)): 17.3 (6.60–28.0) months | ORR (95% CI) (All patients, 800 mg QD (n=3)): 66.7% (9.4–99.2) | PFS, Median (95% CI) (All patients, 800 mg QD (n=3)): 10.3 (7.72–29.2) months | DoR, Median (95% CI) (All patients, Total (n=60)): 13.3 (6.60–22.2) months | PFS, Median (95% CI) (All patients, Total (n=60)): 9.26 (6.73–15.7) months | patients achieving CR (FAS, 60 patients): 1.7% | patients achieving PR (FAS, 60 patients): 51.7% | patients attaining SD (FAS, 60 patients): 26.7% | patients experiencing PD (FAS, 60 patients): 16.7% | DCR (95% CI) [4]: 0.0% (0.0–97.5) | ORR (95% CI) [4]: 0.0% (0.0–97.5) | PFS, Median (95% CI) [4]: 1.21 (NE–NE) months | PFS, Median (95% CI) (Received crizotinib previously, 100 mg QD (n=1)): 0.95 months and 0.95 (NE–NE) months | DCR (95% CI) [5]: 0.0% (0.0–97.5) | ORR (95% CI) [5]: 0.0% (0.0–97.5) | PFS, Median (95% CI) [5]: 1.34 (NE–NE) months | DoR, Median (95% CI) [6]: 5.58 (4.63–7.39) months | PFS, Median (95% CI) [6]: 7.09 (4.73–8.54) months | DCR (95% CI) [7]: 100.0% (54.1–100.0) | ORR (95% CI) [7]: 0.0% (0.0–97.5) | PFS, Median (95% CI) [7]: 4.92 (NE–NE) months | PFS, Median (95% CI) (Received crizotinib previously, 450 mg QD (n=5)): 8.34 (3.02–26.9) months | DoR, Median (95% CI) [8]: 13.3 (3.77–16.5) months | PFS, Median (95% CI) [8]: 9.37 (4.69–17.7) months | DCR (95% CI) [9]: 100.0% (2.5–100.0) | DoR, Median (95% CI) [9]: 6.60 (NE–NE) months | ORR (95% CI) [9]: 100.0% (2.5–100.0) | PFS, Median (95% CI) [9]: 7.72 (NE–NE) months | tumor size changes relative to baseline (across all patients (n=60)): −100 to 74% | number of patients with CR [10]: One | number of patients with PD [10]: 10 patients | number of patients with PR [10]: 31 patients
